# Laboratory results taken from PMC5354766, “The expression of Nectin-4 on the surface of ovarian cancer cells alters their ability to adhere, migrate, aggregate, and proliferate” (Oncotarget, 2016).
# Where no end group is shown, it is not given here.
# Columns and labels:
# [1] = system: NIH:OVCAR5-N4-over cells adhering to recombinant human Nectin-1 extracellular domain; test: Peptide screen in the cell adhesion assay at 150 μg/ml; type: cell-based; conditions: peptide 0.15 mg/ml; 0.5 μg/well Nectin-1 (R&D Systems); relative to DMSO control; Figure 4A
# Description: Black, clear-bottom 96-well microtiter plates (Corning, Imported Costar, Corning, NY) were coated with various concentrations of recombinant human Nectin-1 extracellular domain (R&D Systems or Acrobiosystems, Newark, DE), recombinant human Nectin-4 extracellular domain (R&D Systems), or bovine serum albumin (BSA; Probumin Diagnostic Grade, MilliPore) diluted in PBS. Covered plates were incubated overnight at 37°C in a humidified incubator. After washing with PBS plus Ca^2+/Mg^2+ containing 2 mg/ml ovalbumin (Sigma-Aldrich), the plates were blocked for 1 h at 37°C with 1% BSA in PBS without Ca^2+/Mg^2+. Confluent monolayers of NIH:OVCAR5 cells or NIH:OVCAR5-N4-over cells were detached with Accutase, and then filtered through a 40 μm cell strainer (BD Biosciences, San Jose, CA) to remove cell aggregates. The single cells were stained with CellTracker Green CMFDA (5-chloromethylfluorescein diacetate; Invitrogen™) according to the manufacturer's protocol. After washing the plate, 30,000 cells were added to each well in 50 μl of RPMI 1640 media containing 2 mg/ml ovalbumin and allowed to adhere for 15-60 min at 37°C. Plates were vigorously washed four times and read in a BioTek Synergy fluorescent microplate reader (BioTek, Winooski, VA). Experiments were conducted in triplicate.
# Microtiter plates coated with 0.5 μg/well recombinant human Nectin-1 extracellular domain (R&D Systems) as described above were pre-incubated for 30 min at room temperature with 150 μg/ml Nectin-4 peptides in PBS in triplicate. CMFDA-stained NIH:OVCAR5-N4-over cells were then added to the wells and cell adhesion was quantified after a 30 min incubation as described above. In parallel studies, CMFDA-stained NIH:OVCAR5-N4-over cells were pre-incubated for 30 min at room temperature with 150 μg/ml Nectin-1 peptides in PBS in triplicate, and then the cells and peptides were added to the 96-well plate followed by a 30 min incubation. […] Dose curves were conducted as described above, except the microtiter plates were coated with 0.25 μg/well recombinant human Nectin-1 extracellular domain (Acrobiosystems), and the peptides and scrambled controls were diluted from 0.01-200 μg/ml.
# [2] = system: NIH:OVCAR5-N4-over cells adhering to recombinant human Nectin-1 extracellular domain; conditions: 1 h
# NIH:OVCAR5 cells [3] = test: Wound healing (cell migration) assay after mitomycin C treatment; type: cell-based, human; conditions: 25 μg/ml mitomycin C for 3 h
# Description: Cells were diluted to a concentration of 700,000-10^6 cells/ml in complete media, and 70 μl was plated into each chamber (0.22 cm^2 growth area) of an ibidi® wound-healing culture-insert (ibidi® Verona, WI) in triplicate in a 100 × 20 mm dish (Corning, Falcon, Corning NY). Cells were grown overnight at 37°C in a humidified incubator with 5% CO2 or until the chambers were confluent, prior to removal of the culture insert. Migrating cells were incubated in OptiMEM® containing 10 μM lysophosphatidic acid (LPA Cayman Chemical, Ann Arbor, MI) and photographed initially (t = 0 h), and then up to 48 h with a 4X objective. Image analysis was performed using ImageJ software with the Scratch Assay Analyzer from the MiToBo plug in. Three independent experiments were performed on each cell line.
# (§1) Mitomycin C (Sigma-Aldrich, M287) was reconstituted at 0.4 mg/ml in PBS, pH 7.4, according to the supplier's instructions. Prior to spheroid assays, adherent NIH:OVCAR5 cells were pretreated for 3 hours at 37°C, in a tissue culture flask 10 μg/ml mitomycin C diluted in complete RPMI media. Flasks were rinsed with PBS and cells were detached as described for the spheroid assay. For migration assays, cells were plated in ibidi® wound-healing culture-insert incubated overnight, then the media was removed from the culture inserts and replaced with 25 μg/ml mitomycin C in complete RPMI. After 3 hours at 37°C, the culture inserts were removed and the cells were washed with PBS and cell migration was measured as described above.
# NIH:OVCAR5 cells [4] = test: Spheroid formation after mitomycin C treatment; type: cell-based, human; conditions: 10 μg/ml mitomycin C for 3 h, spheroids after 24 h
# Description: Spheroids were formed from the cell lines described above using the liquid overlay method. One milliliter of a single cell suspension was seeded at a concentration of 50,000 cells/ml in complete media, into 24-well tissue culture plates coated with 0.5% Seakem agarose (in complete media). Plates were incubated at 37°C in a humidified incubator with 5% CO2. At various time points up to 5 days, the plates were removed from the incubator and the spheroids were photographed with a Nikon CoolPix digital camera mounted on an Olympus CK2 inverted microscope with a 4X objective. The size of the spheroids was determined using the measure tool in Adobe Photoshop. The largest spheroids were quantified (20-90 spheroids/well) in a minimum of 8 wells, for a total of >300 spheroids per cell type.
# as §1
Molecule,Promotion of cell adhesion [1] [fold],"IC50 (mg/ml), inhibition of binding of OVCAR5-N4-over cells to recombinant Nectin-1 [2] [mg/mL]",also measured
"LWHIGREGAMLKCL [N4-P20, Synthetic peptide from Nectin-4 extracellular domain, IgC2]",~1.5,,
WTRLDGPLPSGVRV-NH2 [N4-P22],,0.028,
QRITHILHVSFLAE-NH2 [N4-P18],,0.041,
"RVDGDTLGFPPLTT [N4-P23, Synthetic peptide from Nectin-4 extracellular domain, IgC2]",~1.5,,
CO[C@@]12[C@H](COC(N)=O)C3=C(C(=O)C(C)=C(N)C3=O)N1C[C@@H]1N[C@@H]12 [mitomycin C],,,"Effect on migration in wound healing assay (NIH:OVCAR5 cells [3]; NIH:OVCAR5 cells that over-express Nectin-4, 24 h): almost completely inhibited migration; Exposed wound area covered by migrating cells in 24 h (NIH:OVCAR5 cells [3]; NIH:OVCAR5 control cells, untreated cells completely closed the wound): 50%; Migration (wound area covered) in 24 h (NIH:OVCAR5 cells [3]; Nectin-4 knock-down cells N4-KD-VB3, untreated cells 25%): 16%; Spheroid size with vs without treatment (NIH:OVCAR5 cells [4]; NIH:OVCAR5-N4-KD cells): essentially unchanged; Spheroid size with vs without treatment (NIH:OVCAR5 cells [4]; NIH:OVCAR5-N4-over cells): essentially unchanged; Spheroid size with vs without treatment (NIH:OVCAR5 cells [4]; NIH:OVCAR5 control cells): somewhat smaller"
"CLSEGQPPPSYNWT [N4-P21, Synthetic peptide from Nectin-4 extracellular domain, IgC2]",~1.5,,
"TTEHSGIYVCHVSN [N4-P24, Synthetic peptide from Nectin-4 extracellular domain, IgC2]",~1.5,,
ACIVNYHMDRFKES-NH2 [N1-P17],,0.006,
NWYLQRMDVKLTCK-NH2 [N1-P20],,0.018,
